Data from patent publication US20170008888A1 (KYORIN PHARMACEUTICAL CO., LTD., priority 2014, published 2017).
Like-named read-outs stand apart in the source and are kept apart here.

Experiments:
human PBMCs = assay: Human PBMC TNF-α response to endotoxin (ELISA); assay type: cell-based; settings: 0.1 μg/ml LPS 16 h, read-out: EC50 for the inhibition of the human PBMC TNF-α response to endotoxin, ave. ± S.D.
In short: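 PBMCs at 2e6 cells/ml in RPMI 1640 with 10% charcoal-dextran-treated FBS were pre-treated 1 h at 37 °C with compound (4-point 1:5 dilution from 10 μM). Stimulation with 0.1 μg/ml E. coli 0111:B4 LPS for 16 h; TNF-α measured by ELISA (A450) in 25-fold diluted supernatant.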

TAO2 = molecular target: T1, TAO2 (Homo sapiens, UniProt Q9UL54); assay: Probe-based (AX9989) kinase profiling in Jurkat lysate: TAO2; assay type: binding; settings: for inhibition at 0.1 µM: screening concentration 0.1 μM
T1 construct: screened for activity against several kinases in Jurkat cells; endogenous in cells; host or cells: Jurkat cell lysate
T1 sequence (Q9UL54 1-1235): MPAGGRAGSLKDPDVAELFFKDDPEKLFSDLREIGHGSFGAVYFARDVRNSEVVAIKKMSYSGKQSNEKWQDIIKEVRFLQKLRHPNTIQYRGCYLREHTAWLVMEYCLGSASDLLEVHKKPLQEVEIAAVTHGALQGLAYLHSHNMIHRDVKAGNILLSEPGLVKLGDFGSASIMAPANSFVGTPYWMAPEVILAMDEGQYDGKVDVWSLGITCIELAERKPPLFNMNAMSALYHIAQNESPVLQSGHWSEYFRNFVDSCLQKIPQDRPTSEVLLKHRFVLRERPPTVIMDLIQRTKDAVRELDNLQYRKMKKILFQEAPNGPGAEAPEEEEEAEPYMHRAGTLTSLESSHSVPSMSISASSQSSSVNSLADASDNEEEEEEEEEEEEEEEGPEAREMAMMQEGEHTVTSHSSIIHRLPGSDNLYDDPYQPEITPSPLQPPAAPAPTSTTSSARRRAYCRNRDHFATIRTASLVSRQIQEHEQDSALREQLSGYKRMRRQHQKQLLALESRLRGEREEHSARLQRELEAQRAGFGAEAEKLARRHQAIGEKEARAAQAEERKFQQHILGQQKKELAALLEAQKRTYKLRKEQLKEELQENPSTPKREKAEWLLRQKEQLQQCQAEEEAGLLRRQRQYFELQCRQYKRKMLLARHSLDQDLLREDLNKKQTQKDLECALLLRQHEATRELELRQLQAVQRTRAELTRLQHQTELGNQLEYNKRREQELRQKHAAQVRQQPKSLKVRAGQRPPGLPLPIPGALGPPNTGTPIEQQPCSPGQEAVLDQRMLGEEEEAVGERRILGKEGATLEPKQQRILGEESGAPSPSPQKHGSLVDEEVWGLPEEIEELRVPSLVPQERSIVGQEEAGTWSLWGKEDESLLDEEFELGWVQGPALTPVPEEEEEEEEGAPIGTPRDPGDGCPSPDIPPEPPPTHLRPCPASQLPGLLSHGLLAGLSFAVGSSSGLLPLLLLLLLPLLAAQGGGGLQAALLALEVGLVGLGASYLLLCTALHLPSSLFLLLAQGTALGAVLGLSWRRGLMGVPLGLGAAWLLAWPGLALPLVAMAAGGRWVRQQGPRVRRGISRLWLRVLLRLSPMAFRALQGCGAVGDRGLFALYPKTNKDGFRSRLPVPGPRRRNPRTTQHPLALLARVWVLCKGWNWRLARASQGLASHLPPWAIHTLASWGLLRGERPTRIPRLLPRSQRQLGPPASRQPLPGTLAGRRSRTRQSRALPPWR
In short: (§1)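 Read-out: LC/MS intensity of desthiobiotinylated kinase active-site peptides, percent inhibition normalized to no-compound lysate. Jurkat lysate with 20 mM MnCl2 received compound for 15 min at room temperature, then 5 μM AX9989 probe; duplicates.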

ERK5 = molecular target: T2, ERK5 (Homo sapiens, UniProt Q13164); assay: Probe-based (AX9989 acyl phosphate ATP probe) kinase profiling in Jurkat lysate: ERK5; assay type: binding; settings: for IC50: Jurkat lysate; for inhibition at 0.1 µM: screening concentration 0.1 μM
T2 construct: screened for activity against several kinases in Jurkat cells; endogenous in cells; host or cells: Jurkat cell lysate
T2 sequence (Q13164 whole entry): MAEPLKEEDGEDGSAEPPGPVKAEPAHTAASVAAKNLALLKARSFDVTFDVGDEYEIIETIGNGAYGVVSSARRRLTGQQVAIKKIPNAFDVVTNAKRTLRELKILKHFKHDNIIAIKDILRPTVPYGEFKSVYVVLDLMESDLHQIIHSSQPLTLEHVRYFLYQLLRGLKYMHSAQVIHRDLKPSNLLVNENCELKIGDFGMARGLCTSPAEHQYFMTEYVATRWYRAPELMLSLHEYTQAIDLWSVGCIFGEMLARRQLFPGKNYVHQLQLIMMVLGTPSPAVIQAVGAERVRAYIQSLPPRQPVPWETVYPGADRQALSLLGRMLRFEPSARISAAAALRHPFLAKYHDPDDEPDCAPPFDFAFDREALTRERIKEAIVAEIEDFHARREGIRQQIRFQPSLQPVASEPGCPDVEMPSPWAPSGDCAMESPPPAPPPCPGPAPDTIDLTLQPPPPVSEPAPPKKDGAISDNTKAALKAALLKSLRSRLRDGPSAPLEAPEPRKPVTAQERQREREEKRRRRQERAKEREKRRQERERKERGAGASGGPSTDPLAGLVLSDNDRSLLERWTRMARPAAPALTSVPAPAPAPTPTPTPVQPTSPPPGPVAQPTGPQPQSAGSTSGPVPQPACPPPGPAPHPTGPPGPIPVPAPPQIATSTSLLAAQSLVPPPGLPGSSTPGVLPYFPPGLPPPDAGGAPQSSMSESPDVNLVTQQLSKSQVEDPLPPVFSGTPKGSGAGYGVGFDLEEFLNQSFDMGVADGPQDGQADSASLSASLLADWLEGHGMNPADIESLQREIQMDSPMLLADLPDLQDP
In short: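 ERK5 IC50 values came from percent inhibition at the screening concentration, measured as loss of LC/MS signal of probe-labelled active-site peptides. Compound was added for 15 min at room temperature to Jurkat lysate (5 mg/ml, 20 mM MnCl2) before labelling with AX9989 ATP acyl phosphate probe at 5 μM.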

ACK = molecular target: T3, ACK (Homo sapiens, UniProt Q07912); assay: Probe-based (AX9989) kinase profiling in Jurkat lysate: ACK; assay type: binding; settings: for inhibition at 0.1 µM: screening concentration 0.1 μM
T3 construct: screened for activity against several kinases in Jurkat cells; endogenous in cells; host or cells: Jurkat cell lysate
T3 sequence (Q07912 whole entry): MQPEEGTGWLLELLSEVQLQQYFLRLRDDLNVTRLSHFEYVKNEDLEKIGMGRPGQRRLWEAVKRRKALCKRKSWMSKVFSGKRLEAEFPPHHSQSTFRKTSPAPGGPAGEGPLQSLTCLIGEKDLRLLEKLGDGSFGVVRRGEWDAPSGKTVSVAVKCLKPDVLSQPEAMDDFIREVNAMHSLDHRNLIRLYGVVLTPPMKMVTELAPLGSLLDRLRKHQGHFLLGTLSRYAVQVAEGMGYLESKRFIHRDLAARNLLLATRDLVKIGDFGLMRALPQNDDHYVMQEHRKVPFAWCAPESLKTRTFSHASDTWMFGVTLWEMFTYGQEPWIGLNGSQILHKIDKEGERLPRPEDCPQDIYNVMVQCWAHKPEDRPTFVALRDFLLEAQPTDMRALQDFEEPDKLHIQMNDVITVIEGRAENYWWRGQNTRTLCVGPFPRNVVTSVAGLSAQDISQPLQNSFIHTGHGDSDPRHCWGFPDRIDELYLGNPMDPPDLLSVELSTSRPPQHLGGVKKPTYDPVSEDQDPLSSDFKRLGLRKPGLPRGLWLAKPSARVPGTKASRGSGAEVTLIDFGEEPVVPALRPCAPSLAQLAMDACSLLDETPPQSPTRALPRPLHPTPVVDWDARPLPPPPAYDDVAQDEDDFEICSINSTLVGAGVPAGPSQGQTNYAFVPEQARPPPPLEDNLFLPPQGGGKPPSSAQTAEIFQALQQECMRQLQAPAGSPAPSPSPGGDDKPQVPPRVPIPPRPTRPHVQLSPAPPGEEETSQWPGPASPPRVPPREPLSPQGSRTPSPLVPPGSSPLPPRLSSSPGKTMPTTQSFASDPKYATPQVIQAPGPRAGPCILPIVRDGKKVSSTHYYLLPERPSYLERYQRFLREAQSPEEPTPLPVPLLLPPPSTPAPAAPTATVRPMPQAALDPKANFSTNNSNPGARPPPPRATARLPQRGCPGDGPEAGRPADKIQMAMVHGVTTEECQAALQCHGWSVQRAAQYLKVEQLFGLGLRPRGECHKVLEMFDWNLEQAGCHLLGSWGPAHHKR
In short: as §1

ABL or ARG = assay: Probe-based (AX9989) kinase profiling in Jurkat lysate: ABL or ARG; assay type: binding
In short: as §1

[1] = screening concentration 1 μM, read-out: TAO2 Inhibition % at indicated screening concentration
[2] = calculated from percent inhibition and screening concentration, AX9989 probe
[3] = screening concentration 1 μM, read-out: ERK5 Inhibition % at indicated screening concentration
[4] = screening concentration 1 μM, read-out: ACK Inhibition % at indicated screening concentration
[5] = screening concentration 1.0 μM, read-out: Kinase inhibition % at indicated screening concentration: TAO2
[6] = calculated from percent inhibition of AX9989 labeling and the screening concentration
[7] = screening concentration 1.0 μM, read-out: Kinase inhibition % at indicated screening concentration: ERK5
[8] = screening concentration 1.0 μM, read-out: Kinase inhibition % at indicated screening concentration: ACK
[9] = read-out: Kinase inhibition % at indicated screening concentration: TAO2
[10] = read-out: Kinase inhibition % at indicated screening concentration: ERK5
[11] = read-out: Kinase inhibition % at indicated screening concentration: ACK

inhibition at 1 µM (TAO2; [1]) [%]	IC50 (ERK5; [2]) [nM]	inhibition at 1 µM (ERK5; [3]) [%]	inhibition at 1 µM (ACK; [4]) [%]	ABL or ARG Inhibition % at indicated screening concentration (ABL or ARG; screening concentration 1 μM)	inhibition at 1 µM (TAO2; [5]) [%]	IC50 (ERK5; [6]) [nM]	inhibition at 1 µM (ERK5; [7]) [%]	inhibition at 1 µM (ACK; [8]) [%]	Kinase inhibition % at indicated screening concentration: ABL or ARG (ABL or ARG; screening concentration 1.0 μM)	SMILES	EC50 (human PBMCs) [nM]	other results
–	> 500	–	–	–	–	–	–	–	–	COc1cccc2c1Oc1cc(N[C@H]3CC[C@H](O)CC3)ncc1N(C)C2=O [Compound T95]	1380 ± 1710	inhibition at 10 µM (TAO2; screening concentration 10 μM, read-out: TAO2 Inhibition % at indicated screening concentration): 50 to 75%; inhibition at 10 µM (ERK5; screening concentration 10 μM, read-out: ERK5 Inhibition % at indicated screening concentration): > 90%; inhibition at 10 µM (ACK; screening concentration 10 μM, read-out: ACK Inhibition % at indicated screening concentration): ≤ 35%; ABL or ARG Inhibition % at indicated screening concentration (ABL or ARG; screening concentration 10 μM): E (E is ≦35%)
–	–	–	–	–	≤ 35	101 to 500	75 to 90	≤ 35	E (E is ≦35%)	CCOc1cc(C(=O)NCCOC)ccc1Nc1cc2c(cn1)N(C)C(=O)c1ccccc1N2C [Compound 83]	1480	–
–	–	–	–	–	–	≤ 50	–	–	–	CCOc1cc(C(=O)N2CCC(N3CCN(C)CC3)CC2)ccc1Nc1cc2c(cn1)N(C)C(=O)c1occc1N2C [Compound 65]	460	inhibition at 0.1 µM (TAO2; [9]): ≤ 35%; inhibition at 0.1 µM (ERK5; [10]): > 90%; inhibition at 0.1 µM (ACK; [11]): ≤ 35%; Kinase inhibition % at indicated screening concentration: ABL or ARG (ABL or ARG; screening concentration 0.1 μM): E (E is ≦35%)
–	–	–	–	–	≤ 35	> 500	50 to 75	≤ 35	E (E is ≦35%)	CCOc1cc(C(=O)NCCO)ccc1Nc1cc2c(cn1)N(C)C(=O)c1ccccc1N2C [Compound 66]	1330	–
–	–	–	–	–	–	≤ 50	–	–	–	CCOc1cc(C(=O)N2CCC(N3CCCC3)CC2)ccc1Nc1cc2c(cn1)N(C)C(=O)c1occc1N2C [Compound 91, 6-((2-Ethoxy-4-(4-(pyrrolidin-1-yl)piperidine-1-carbonyl)phenyl)amino)-4,9-dimethyl-4H-furo[3,2-e]pyrido[3,4-b][1,4]diazepin-10(9H)-one]	710	inhibition at 0.1 µM (TAO2; [9]): ≤ 35%; inhibition at 0.1 µM (ERK5; [10]): > 90%; inhibition at 0.1 µM (ACK; [11]): ≤ 35%; Kinase inhibition % at indicated screening concentration: ABL or ARG (ABL or ARG; screening concentration 0.1 μM): E (E is ≦35%)

The remaining lines, values behind:

SMILES	inhibition at 1 µM (TAO2; [1]) [%]	IC50 (ERK5; [2]) [nM]	inhibition at 1 µM (ERK5; [3]) [%]	inhibition at 1 µM (ACK; [4]) [%]	ABL or ARG Inhibition % at indicated screening concentration (ABL or ARG; screening concentration 1 μM)	inhibition at 1 µM (TAO2; [5]) [%]	IC50 (ERK5; [6]) [nM]	inhibition at 1 µM (ERK5; [7]) [%]	inhibition at 1 µM (ACK; [8]) [%]	Kinase inhibition % at indicated screening concentration: ABL or ARG (ABL or ARG; screening concentration 1.0 μM)	EC50 (human PBMCs) [nM]	other results
CCOc1cc(C(=O)N2CCN(CCN(C)C)CC2)ccc1Nc1cc2c(cn1)N(C)C(=O)c1ccccc1N2C [Compound T14]	≤ 35	≤ 50	> 90	≤ 35	E (E is ≦35%)	–	–	–	–	–	720 ± 50	–
CCOc1cc(C(=O)N2CCC(NC3CCN(C)CC3)C2)ccc1Nc1cc2c(cn1)N(C)C(=O)c1ccccc1N2C (stereo not drawn) [Compound T42]	≤ 35	50 to 100	> 90	≤ 35	E (E is ≦35%)	–	–	–	–	–	680 ± 450	–
CCOc1cc(C(=O)N2CC[C@H](N(C)C)C2)ccc1Nc1cc2c(cn1)N(C)C(=O)c1ccccc1N2C [Compound 75]	–	–	–	–	–	≤ 35	≤ 50	> 90	≤ 35	E (E is ≦35%)	610	–
CCOc1cc(C(=O)N2CCN(c3cccnc3)CC2)ccc1Nc1cc2c(cn1)N(C)C(=O)c1occc1N2C [Compound T56]	≤ 35	≤ 50	> 90	≤ 35	E (E is ≦35%)	–	–	–	–	–	300	–
